Where “and” joins values, the source holds several entries; their conditions need not be identical. Identical values can stand only once.
Tested on: LG0703-F948-PDC complex spheroid viability
Test: Anticancer human tumor LG0703-F948-PDC patient-derived lung adenocarcinoma cell line growth inhibition [RAS]
Conditions: for viability, T/C: stronger effect = lower value
Outline: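 Tumour cells grown as complex spheroids with HUVEC endothelial cells and mesenchymal stem cells, treated with RAS pathway inhibitor combinations. Each agent spans half-log steps from near clinical Cmax, or 10 microM where Cmax is unknown.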
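Note: spheroids exposed to agents for 7 days.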
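Throughout, for viability, T/C: 100% = DMSO vehicle wells.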

CC1(O)CCCC1n1c(=O)c(C(F)F)cc2cnc(NC3CCN(S(C)(=O)=O)CC3)nc21 (configuration not stated) + CCn1c(-c2cc(N3CCN(C)CC3)cnc2C(C)OC)c2c3cc(ccc31)-c1csc(n1)CC(NC(=O)C1CC1C)C(=O)N1CCCC(N1)C(=O)OCC(C)(C)C2
IC50 (curve of first compound, second compound 0.000949 µM): 4620 nM | IC50 (curve of first compound, second compound 0.003 µM): < 31.6 nM | IC50 (curve of first compound, second compound 0.00949 µM): < 31.6 nM | IC50 (curve of first compound, second compound 0.03 µM): < 31.6 nM | IC50 (curve of first compound, second compound 0.0949 µM): < 31.6 nM | IC50 (curve of first compound, second compound 0.3 µM): < 31.6 nM | viability, T/C (second compound 0.000949 µM, first compound 0.0316 µM): 77.1% | viability, T/C (second compound 0.000949 µM, first compound 0.1 µM): 89.8% | viability, T/C (second compound 0.000949 µM, first compound 0.316 µM): 69.7% | viability, T/C (second compound 0.000949 µM, first compound 1 µM): 71.1% | viability, T/C (second compound 0.000949 µM, first compound 3.16 µM): 63% | viability, T/C (second compound 0.000949 µM, first compound 10 µM): 28.3% | viability, T/C (second compound 0.003 µM, first compound 0.0316 µM): 52.2% | viability, T/C (second compound 0.003 µM, first compound 0.1 µM): 48.5% | viability, T/C (second compound 0.003 µM, first compound 0.316 µM): 46.9% | viability, T/C (second compound 0.003 µM, first compound 1 µM): 52.1% | viability, T/C (second compound 0.003 µM, first compound 3.16 µM): 46.7% | viability, T/C (second compound 0.003 µM, first compound 10 µM): 18.4% | viability, T/C (second compound 0.00949 µM, first compound 0.0316 µM): 27.4% | viability, T/C (second compound 0.00949 µM, first compound 0.1 µM): 31% | viability, T/C (second compound 0.00949 µM, first compound 0.316 µM): 31% | viability, T/C (second compound 0.00949 µM, first compound 1 µM): 29.3% | viability, T/C (second compound 0.00949 µM, first compound 3.16 µM): 33.4% | viability, T/C (second compound 0.00949 µM, first compound 10 µM): 13.4% | viability, T/C (second compound 0.03 µM, first compound 0.0316 µM): 16.4% | viability, T/C (second compound 0.03 µM, first compound 0.1 µM): 18.5% | viability, T/C (second compound 0.03 µM, first compound 0.316 µM): 15.9% | viability, T/C (second compound 0.03 µM, first compound 1 µM): 19.1% | viability, T/C (second compound 0.03 µM, first compound 3.16 µM): 19.1% | viability, T/C (second compound 0.03 µM, first compound 10 µM): 7.67% | viability, T/C (second compound 0.0949 µM, first compound 0.0316 µM): 11.3% | viability, T/C (second compound 0.0949 µM, first compound 0.1 µM): 14% | viability, T/C (second compound 0.0949 µM, first compound 0.316 µM): 12.9% | viability, T/C (second compound 0.0949 µM, first compound 1 µM): 17% | viability, T/C (second compound 0.0949 µM, first compound 3.16 µM): 21% | viability, T/C (second compound 0.0949 µM, first compound 10 µM): 5.97% | viability, T/C (second compound 0.3 µM, first compound 0.0316 µM): 10.2% | viability, T/C (second compound 0.3 µM, first compound 0.1 µM): 7.6% | viability, T/C (second compound 0.3 µM, first compound 0.316 µM): 15.7% | viability, T/C (second compound 0.3 µM, first compound 1 µM): 12.1% | viability, T/C (second compound 0.3 µM, first compound 3.16 µM): 11.2% | viability, T/C (second compound 0.3 µM, first compound 10 µM): 5.22%

CC(C)n1nc(-c2ccc3oc(N)nc3c2)c2c(N)ncnc21 + C=CC(=O)N1CCN(c2nc(OCC3CCCN3C)nc3c(F)c(-c4nc(N)cc(C)c4C(F)(F)F)c(Cl)cc23)C(C)C1
IC50 (curve of first compound, second compound 0.00316 µM): 2.63 nM | IC50 (curve of first compound, second compound 0.01 µM): 4.04 nM | IC50 (curve of first compound, second compound 0.0316 µM): 3.57 nM | IC50 (curve of first compound, second compound 0.1 µM): 3.98 nM | IC50 (curve of first compound, second compound 0.316 µM): 4.22 nM | IC50 (curve of first compound, second compound 1 µM): 4.58 nM | viability, T/C (second compound 0.00316 µM, first compound 0.000316 µM): 90.6% | viability, T/C (second compound 0.00316 µM, first compound 0.001 µM): 65.3% | viability, T/C (second compound 0.00316 µM, first compound 0.00316 µM): 49.1% | viability, T/C (second compound 0.00316 µM, first compound 0.01 µM): 29.7% | viability, T/C (second compound 0.00316 µM, first compound 0.0316 µM): 12.6% | viability, T/C (second compound 0.00316 µM, first compound 0.1 µM): 7.5% | viability, T/C (second compound 0.01 µM, first compound 0.000316 µM): 92.8% | viability, T/C (second compound 0.01 µM, first compound 0.001 µM): 79.9% | viability, T/C (second compound 0.01 µM, first compound 0.00316 µM): 55.6% | viability, T/C (second compound 0.01 µM, first compound 0.01 µM): 29.7% | viability, T/C (second compound 0.01 µM, first compound 0.0316 µM): 12.3% | viability, T/C (second compound 0.01 µM, first compound 0.1 µM): 7.9% | viability, T/C (second compound 0.0316 µM, first compound 0.000316 µM): 94.8% | viability, T/C (second compound 0.0316 µM, first compound 0.001 µM): 76% | viability, T/C (second compound 0.0316 µM, first compound 0.00316 µM): 52.3% | viability, T/C (second compound 0.0316 µM, first compound 0.01 µM): 30.9% | viability, T/C (second compound 0.0316 µM, first compound 0.0316 µM): 12.8% | viability, T/C (second compound 0.0316 µM, first compound 0.1 µM): 6.67% | viability, T/C (second compound 0.1 µM, first compound 0.000316 µM): 106% | viability, T/C (second compound 0.1 µM, first compound 0.001 µM): 78.3% | viability, T/C (second compound 0.1 µM, first compound 0.00316 µM): 57.6% | viability, T/C (second compound 0.1 µM, first compound 0.01 µM): 31.4% | viability, T/C (second compound 0.1 µM, first compound 0.0316 µM): 14.3% | viability, T/C (second compound 0.1 µM, first compound 0.1 µM): 8.14% | viability, T/C (second compound 0.316 µM, first compound 0.000316 µM): 103% | viability, T/C (second compound 0.316 µM, first compound 0.001 µM): 79.3% | viability, T/C (second compound 0.316 µM, first compound 0.00316 µM): 59% | viability, T/C (second compound 0.316 µM, first compound 0.01 µM): 31.5% | viability, T/C (second compound 0.316 µM, first compound 0.0316 µM): 12.9% | viability, T/C (second compound 0.316 µM, first compound 0.1 µM): 7.55% | viability, T/C (second compound 1 µM, first compound 0.000316 µM): 114% | viability, T/C (second compound 1 µM, first compound 0.001 µM): 84.8% | viability, T/C (second compound 1 µM, first compound 0.00316 µM): 59.2% | viability, T/C (second compound 1 µM, first compound 0.01 µM): 34.3% | viability, T/C (second compound 1 µM, first compound 0.0316 µM): 13.9% | viability, T/C (second compound 1 µM, first compound 0.1 µM): 6.36%

O=C(c1ccc(F)c(F)c1Nc1ccc(I)cc1F)N1CC(O)([C@@H]2CCCCN2)C1
viability, T/C (compound 0.00316 µM): 96.7% [middle of 4 runs] | viability, T/C (compound 0.01 µM): 73.4% [middle of 4 runs] | viability, T/C (compound 0.0316 µM): 57.7% [middle of 4 runs] | viability, T/C (compound 0.1 µM): 42.3% [middle of 4 runs] | viability, T/C (compound 0.316 µM): 30.9% [middle of 4 runs] | viability, T/C (compound 1 µM): 25.4% [middle of 4 runs]

CCC(CC)c1cc(NC2CCC(N)C2)n2nccc2n1 (configuration not stated)
viability, T/C (compound 0.0316 µM): 85.9% and 96.8% and 101% | viability, T/C (compound 0.1 µM): 94.6% and 93.7% and 90% | viability, T/C (compound 0.316 µM): 75.7% and 85.7% and 97% | viability, T/C (compound 1 µM): 76.4% and 54.7% and 68.8% | viability, T/C (compound 3.16 µM): 4.37% and 1.19% and 2.28% | viability, T/C (compound 10 µM): 0.41% and 0.27% and 0.38% | IC50 (curve of compound): 1520 nM and 1080 nM and 1380 nM
